In article PMC5686105, “The industrial anaerobe Clostridium acetobutylicum uses polyketides to regulate cellular differentiation” (Nature Communications, 2017):

Columns and labels:
PKS (ca_c3355) [1] = molecular target: T1, PKS (ca_c3355) (Clostridium acetobutylicum, UniProt Q97DW5); assay: in vitro product assay by LC-MS; type: biochemical; conditions: 100 mM phosphate pH 7.0, 2 mM malonyl-CoA, 2 mM NADPH, 8 uM PKS, room temperature, 2 h; KR domain reductant
PKS (ca_c3355) [2] = molecular target: T1, PKS (ca_c3355); assay: in vitro product assay by LC-MS; […] acyl loading by SDS-PAGE autoradiography; type: biochemical; conditions: 100 mM phosphate pH 7.0, 2 mM malonyl-CoA, 8 uM PKS, room temperature, 2 h; covalent acyl-S-enzyme intermediate seen with labelled compound (made in situ by MatB, pH 8.0, 25 °C)

T1 sequence (Q97DW5 1-1795): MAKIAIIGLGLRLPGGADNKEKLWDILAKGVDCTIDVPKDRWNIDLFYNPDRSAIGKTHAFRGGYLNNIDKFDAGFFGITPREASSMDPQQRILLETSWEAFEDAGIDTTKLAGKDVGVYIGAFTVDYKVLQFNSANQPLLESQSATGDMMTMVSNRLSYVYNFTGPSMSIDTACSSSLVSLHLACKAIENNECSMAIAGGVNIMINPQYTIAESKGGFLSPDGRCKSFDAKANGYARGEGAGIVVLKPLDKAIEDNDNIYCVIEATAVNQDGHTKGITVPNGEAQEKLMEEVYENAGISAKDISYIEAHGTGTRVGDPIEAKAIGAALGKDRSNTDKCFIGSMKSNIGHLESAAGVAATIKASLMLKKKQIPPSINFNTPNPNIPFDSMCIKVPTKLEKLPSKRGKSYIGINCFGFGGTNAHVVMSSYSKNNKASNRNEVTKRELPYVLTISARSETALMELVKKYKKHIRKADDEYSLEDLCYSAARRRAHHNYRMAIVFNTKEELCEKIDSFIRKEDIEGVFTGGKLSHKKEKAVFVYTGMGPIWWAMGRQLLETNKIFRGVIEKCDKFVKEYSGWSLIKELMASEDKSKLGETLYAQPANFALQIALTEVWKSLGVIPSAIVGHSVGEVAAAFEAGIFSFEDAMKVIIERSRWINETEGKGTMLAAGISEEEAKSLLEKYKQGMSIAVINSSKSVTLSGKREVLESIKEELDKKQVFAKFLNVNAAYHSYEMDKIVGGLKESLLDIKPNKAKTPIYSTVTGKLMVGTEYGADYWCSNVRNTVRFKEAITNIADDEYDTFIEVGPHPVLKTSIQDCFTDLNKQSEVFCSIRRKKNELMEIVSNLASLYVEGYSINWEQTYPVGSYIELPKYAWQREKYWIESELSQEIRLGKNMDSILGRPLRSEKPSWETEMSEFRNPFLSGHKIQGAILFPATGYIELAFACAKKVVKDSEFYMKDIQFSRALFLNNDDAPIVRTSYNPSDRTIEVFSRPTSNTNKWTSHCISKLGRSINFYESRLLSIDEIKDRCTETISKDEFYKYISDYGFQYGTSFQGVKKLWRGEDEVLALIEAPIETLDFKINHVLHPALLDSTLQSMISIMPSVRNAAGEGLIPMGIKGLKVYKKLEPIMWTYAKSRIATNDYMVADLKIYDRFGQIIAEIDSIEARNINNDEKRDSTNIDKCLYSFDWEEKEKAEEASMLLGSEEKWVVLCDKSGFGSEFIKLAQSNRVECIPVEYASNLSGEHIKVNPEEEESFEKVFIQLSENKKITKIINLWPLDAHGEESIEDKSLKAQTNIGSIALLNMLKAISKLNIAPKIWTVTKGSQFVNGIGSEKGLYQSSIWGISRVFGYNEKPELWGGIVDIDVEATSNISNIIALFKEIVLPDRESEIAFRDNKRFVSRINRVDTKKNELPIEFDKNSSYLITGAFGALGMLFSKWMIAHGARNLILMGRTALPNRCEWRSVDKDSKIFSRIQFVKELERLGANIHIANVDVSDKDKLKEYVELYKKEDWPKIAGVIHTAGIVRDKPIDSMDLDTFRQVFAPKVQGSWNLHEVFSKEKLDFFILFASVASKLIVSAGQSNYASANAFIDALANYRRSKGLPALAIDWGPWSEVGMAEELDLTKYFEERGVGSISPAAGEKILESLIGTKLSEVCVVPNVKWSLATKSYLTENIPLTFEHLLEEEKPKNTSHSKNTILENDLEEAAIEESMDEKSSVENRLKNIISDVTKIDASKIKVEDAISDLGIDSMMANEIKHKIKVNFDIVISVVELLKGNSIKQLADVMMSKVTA

SMILES	in vitro product assay by LC-MS (PKS (ca_c3355) [1])	in vitro product assay by LC-MS; 14C acyl loading by SDS-PAGE autoradiography (PKS (ca_c3355) [2])
NC(=O)C1=CN([C@@H]2O[C@H](COP(=O)(O)OP(=O)(O)OC[C@H]3O[C@@H](n4cnc5c(N)ncnc54)[C@H](OP(=O)(O)O)[C@@H]3O)[C@@H](O)[C@H]2O)C=CC1 [NADPH]	Addition of NADPH to this reaction enabled function of the KR domain	–
CC(C)(COP(=O)(O)OP(=O)(O)OC[C@H]1O[C@@H](n2cnc3c(N)ncnc32)[C@H](O)[C@@H]1OP(=O)(O)O)[C@@H](O)C(=O)NCCC(=O)NCCSC(=O)CC(=O)O [malonyl-CoA]	–	in vitro reconstitution of the activity of PKS with malonyl-CoA showed a dominant product
